Laboratory results: patent US20120157452A1, “1H-PYRAZOLO[3,4-B] PYRIDINE COMPOUNDS FOR INHIBITING RAF KINASE” (GENENTECH, INC., priority 2009, published 2012)

Tests used:
LOX xenografts = assay: Tumor Growth Inhibition (LOX) in nude mice with subcutaneous LOX xenografts; assay type: in vivo; settings: female nude mice, subcutaneous LOX xenograft, 30 mg/kg PO on days 1, 2, 3 and 4
Procedure: Female nude mice were implanted subcutaneously on the right flank with approximately 3.5×10^6 LOX cells in 100 μL PBS. Five to seven days later, tumors were measured and mice were randomized into groups of six with average tumor volume in each group of approximately 200 mm^3. Examples 30 and 42 were dissolved in 80% PEG400/20% ethanol before dosing, and administered PO at a volume of 5 mL/kg. Dosing was vehicle alone on days 1, 2, 3 and 4; and Examples 30 and 42 at 30 mg/kg on days 1, 2, 3 and 4 Animal weights and tumor volumes were measured using electronic calipers on […]. Tumor volume was calculated using the formula: volume=(width^2×length)/2. Each Example was run in a separate study with its own vehicle comparison.

V600E full-length B-Raf = biological target: T1, V600E full-length B-Raf (Homo sapiens, UniProt P15056, V600E); assay: B-Raf IC50 assay: incorporation of radio labeled phosphate from [γ-33P]ATP into FSBA-modified wild-type MEK; assay type: biochemical
T1 construct: made in house; host or cells: Sf9 insect cells (baculovirus)
Procedure, shortened: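 Sf9-expressed enzyme (20 nM) preincubated 15 min with 1 µM FSBA-MEK, then reaction started with ATP (4 µM final plus [γ-33P]ATP) in Pipes pH 7.2, 100 mM KCl, 10 mM MgCl2. 60 min at 22 °C; TCA-quenched, filter-captured product counted by scintillation.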

[1] = 4 μM ATP, 60-minute incubation, representative data of multiple tests

T1 sequence (P15056 whole entry V600E): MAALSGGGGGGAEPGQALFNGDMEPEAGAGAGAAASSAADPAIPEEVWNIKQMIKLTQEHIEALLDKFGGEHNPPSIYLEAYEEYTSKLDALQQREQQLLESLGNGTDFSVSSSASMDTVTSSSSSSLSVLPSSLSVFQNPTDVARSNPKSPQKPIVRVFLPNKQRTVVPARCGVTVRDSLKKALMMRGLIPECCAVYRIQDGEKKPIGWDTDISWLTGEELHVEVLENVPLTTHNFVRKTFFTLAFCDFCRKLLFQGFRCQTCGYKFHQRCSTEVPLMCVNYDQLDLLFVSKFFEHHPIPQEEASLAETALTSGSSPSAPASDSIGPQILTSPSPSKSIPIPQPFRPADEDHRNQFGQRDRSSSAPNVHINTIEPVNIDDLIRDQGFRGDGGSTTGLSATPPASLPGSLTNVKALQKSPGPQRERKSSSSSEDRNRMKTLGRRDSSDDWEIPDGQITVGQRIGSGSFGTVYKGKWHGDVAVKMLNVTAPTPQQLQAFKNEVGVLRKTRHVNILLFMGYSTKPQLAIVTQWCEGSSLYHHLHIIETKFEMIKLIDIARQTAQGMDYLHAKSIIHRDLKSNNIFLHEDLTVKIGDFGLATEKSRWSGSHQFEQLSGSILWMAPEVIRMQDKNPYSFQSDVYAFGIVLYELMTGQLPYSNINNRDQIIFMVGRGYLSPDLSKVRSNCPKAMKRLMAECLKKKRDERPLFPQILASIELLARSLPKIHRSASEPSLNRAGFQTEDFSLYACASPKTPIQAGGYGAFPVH

IC50 (V600E full-length B-Raf; [1]) [nM]	IC50 (V600E full-length B-Raf; bound stated) [nM]	SMILES	Tumor Volume (mm^3) Day 1 (LOX xenografts) [mm^3]	Tumor Volume (mm^3) Day 3 (LOX xenografts) [mm^3]	Tumor Volume (mm^3) Day 5 (LOX xenografts) [mm^3]
0.74	< 100	COc1n[nH]c2ncc(NC(=O)c3c(Cl)ccc(OCc4ccc(Cl)cc4)c3F)cc12 [Example 30, 6-chloro-3-(4-chlorobenzyloxy)-2-fluoro-N-(3-methoxy-1H-pyrazolo[3,4-b]pyridin-5-yl)benzamide]	221.68	204.49	168.94
1.76	< 100	COc1n[nH]c2ncc(NC(=O)c3c(Cl)ccc(OCc4ccc(C(F)(F)F)cn4)c3F)cc12 [Example 42, 6-chloro-2-fluoro-N-(3-methoxy-1H-pyrazolo[3,4-b]pyridin-5-yl)-3-((5-(trifluoromethyl)pyridin-2-yl)methoxy)benzamide]	191.22	214.61	161.55
0.4	< 100	COc1n[nH]c2ncc(NC(=O)c3c(C)ccc(OCc4ccc(Cl)cc4)c3F)cc12 [Example 72, 3-(4-chlorobenzyloxy)-2-fluoro-N-(3-methoxy-1H-pyrazolo[3,4-b]pyridin-5-yl)-6-methylbenzamide]	–	–	–
0.86	< 100	COc1n[nH]c2ncc(NC(=O)c3c(C)ccc(OCc4ccc(C(F)(F)F)cc4)c3F)cc12 [Example 73, 2-fluoro-N-(3-methoxy-1H-pyrazolo[3,4-b]pyridin-5-yl)-6-methyl-3-(4-(trifluoromethyl)benzyloxy)benzamide]	–	–	–
0.51	< 100	COc1n[nH]c2ncc(NC(=O)c3c(C)ccc(OCc4ccc(Cl)cn4)c3F)cc12 [Example 74, 3-((5-chloropyridin-2-yl)methoxy)-2-fluoro-N-(3-methoxy-1H-pyrazolo[3,4-b]pyridin-5-yl)-6-methylbenzamide]	–	–	–
139	< 500	COc1n[nH]c2ncc(NC(=O)c3c(Cl)ccc(OCc4ccc(CN5CCOCC5)cc4)c3F)cc12 [Example 75, 6-chloro-2-fluoro-N-(3-methoxy-1H-pyrazolo[3,4-b]pyridin-5-yl)-3-(4-(morpholinomethyl)benzyloxy)benzamide]	–	–	–
13	< 100	COc1n[nH]c2ncc(NC(=O)c3c(Cl)ccc(OCc4cccc5[nH]ccc45)c3F)cc12 [Example 76, 3-((1H-indol-4-yl)methoxy)-6-chloro-2-fluoro-N-(3-methoxy-1H-pyrazolo[3,4-b]pyridin-5-yl)benzamide]	–	–	–
0.56	< 100	COc1n[nH]c2ncc(NC(=O)c3c(Cl)ccc(OCc4ccc(C5CC5)cc4)c3F)cc12 [Example 77, 6-chloro-3-(4-cyclo-propylbenzyloxy)-2-fluoro-N-(3-methoxy-1H-pyrazolo[3,4-b]pyridin-5-yl)benzamide]	–	–	–
5.19	< 100	CC(=O)Nc1n[nH]c2ncc(NC(=O)c3c(Cl)ccc(OCc4ccccc4)c3F)cc12 [Example 78, N-(3-acetamido-1H-pyrazolo[3,4-b]pyridin-5-yl)-3-(benzyloxy)-6-chloro-2-fluorobenzamide]	–	–	–
